Data from patent US10954214B2 (Janssen Pharmaceutica NV, priority 2016, dated 2021).
pIC50: −log10 of the molar value.

Assays:
[1] = target: full-length MALT1 protein (Strep-MALT1(1-824)-His) (Homo sapiens (Human), UniProt Q9UDY8); assay: MALT1 Biochemical Protease Assay (Ac-LRSR-AMC substrate); conditions: 10 nM FL MALT1, 200 μM Ac-LRSR-AMC, 4 h at RT; read-out: MALT1_Biochemical activity (Ac-LRSR-amc) IC50
In short: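 Fluorescence from AMC release off the quenched LRSR substrate was read after a 4 h reaction at RT. Values were normalised to no-enzyme and uninhibited controls and fitted for IC50 and Hill coefficient.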

[2] = tested on: IL6 secretion by TMD8 ABC-DLBCL cells; assay: Human IL6 Mesoscale assay (TMD-8); format: cell-based; conditions: TMD-8 cells, 24 h
Procedure: (§1) NFKB signaling regulates the secretion of multiple cytokines, including IL6 and IL10. Secretion of the cytokines IL6 and IL10 by TMD8 or OCI-LY3 ABC-DLBCL cells was measured using a mesoscale assay. Inhibition of NFKB signaling by MALT1 or BTK inhibitors results in a decrease of IL6/10 secretion.
(§2) TMD8 or OCI-LY3 cells were propagated in RPMI-1640 (Sigma Aldrich) supplemented with 10% fetal bovine serum (HyClone), 1 mM sodium pyruvate (Invitrogen), 2 mM L-glutamine (Sigma Aldrich) and 1% PenStrep (Sigma Aldrich). Cell passage number should not exceed 30. Cells should be kept between 0.5-2.5 million cells per mL during culturing and cells should be supplemented every 2-3 days with fresh 50 μM beta-mercaptoenthanol. No beta-mercaptoethanol was used during the mesoscale assay.
(§3) For the Mesoscale assay, 100,000 TMD8 or OCI-LY3 cells were seeded per well into black-colored 96-well plates with clear bottom (Corning #3904) and test compounds were added in 9 dilution steps (1:2) ranging from 15 μM to 58.6 nM (final DMSO concentration 0.3%). DMSO control wells were used to determine the maximum signal (High Control (HC)). Treatment with the BTK inhibitor RN486 in a dose range from 30 nM to 131 pM (9 dilutions of 1:2) served as a positive control for NFKB pathway inhibition and was used to determine the maximum inhibition (Low Control (LC)). Compounds and cells were incubated for 24 h at 37° C. and 5% CO2 (assay volume is 150 μL). After 24 h of incubation 50 μL of the supernatant was transferred to a MSD plate (V-Plex Proinflammation Panel 1 (human) kit, Mesoscale (MSD)) and incubated for 2 h with vigorous shaking (600 rpm) at room temperature. Following incubation, plates were washed 3× with PBS+0.05% Tween-20 and 25 μL detection antibody solution (IL6 & IL10 antibodies in diluent 3 (MSD)) was added per well followed by 2 h of incubation with vigorous shaking (600 rpm) at room temperature. After 3× washes with PBS+0.05% Tween-20, plates were incubated with 150 μL 2× Read Buffer T and read on SECTOR imager.

[3] = tested on: IL10 secretion by TMD8 ABC-DLBCL cells; assay: Human IL10 Mesoscale assay (TMD-8); format: cell-based; conditions: TMD-8 cells, 24 h
Procedure: as §1, §2, §3

full-length MALT1 protein (Strep-MALT1(1-824)-His), sequence (Q9UDY8 whole entry): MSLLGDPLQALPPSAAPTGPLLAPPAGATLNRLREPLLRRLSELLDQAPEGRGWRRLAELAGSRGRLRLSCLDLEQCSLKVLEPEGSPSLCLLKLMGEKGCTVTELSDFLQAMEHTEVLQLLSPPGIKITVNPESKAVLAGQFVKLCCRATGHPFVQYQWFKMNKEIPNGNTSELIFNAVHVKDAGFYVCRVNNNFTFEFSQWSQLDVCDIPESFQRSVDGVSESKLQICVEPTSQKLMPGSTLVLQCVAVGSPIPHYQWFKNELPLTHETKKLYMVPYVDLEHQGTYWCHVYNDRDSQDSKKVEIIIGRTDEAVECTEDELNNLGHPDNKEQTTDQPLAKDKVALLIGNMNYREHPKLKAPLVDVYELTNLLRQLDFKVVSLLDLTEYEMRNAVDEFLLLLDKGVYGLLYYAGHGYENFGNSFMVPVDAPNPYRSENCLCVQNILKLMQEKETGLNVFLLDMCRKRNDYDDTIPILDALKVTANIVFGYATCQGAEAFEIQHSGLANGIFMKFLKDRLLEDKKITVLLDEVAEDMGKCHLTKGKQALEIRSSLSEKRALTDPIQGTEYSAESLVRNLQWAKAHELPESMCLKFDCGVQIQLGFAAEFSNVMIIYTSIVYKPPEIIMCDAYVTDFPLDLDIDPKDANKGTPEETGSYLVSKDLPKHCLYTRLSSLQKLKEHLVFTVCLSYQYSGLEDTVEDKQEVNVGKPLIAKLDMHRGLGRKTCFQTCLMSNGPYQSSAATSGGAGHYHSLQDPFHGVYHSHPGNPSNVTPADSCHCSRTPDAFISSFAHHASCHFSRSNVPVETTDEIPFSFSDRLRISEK

Row | Molecule | pIC50 [1] | pIC50 ([2]; Homo sapiens, TMD8) | pIC50 ([3]; Homo sapiens, TMD8) | pIC50 [2] | pIC50 [3]
1 | O=C1CO[C@H](c2ncc(-n3ncc(C(=O)Nc4cnc(-n5nccn5)c(Cl)c4)c3C(F)(F)F)c3ccccc23)C1 (single isomer, unassigned) [Cpd 439, (*S)—N-(5-chloro-6-(2H-1,2,3-triazol-2-yl)pyridin-3-yl)-1-(1-(4-oxotetrahydrofuran-2-yl)isoquinolin-4-yl)-5-(trifluoromethyl)-1H-pyrazole-4-carboxamide] | 6.75 | 5.37 | 6.00 |  | 
2 | NC(=O)c1ccc2c(-n3ncc(C(=O)Nc4cnc(-n5nccn5)c(Cl)c4)c3C(F)(F)F)cccc2n1 [Cpd 388, 5-(4-((5-chloro-6-(2H-1,2,3-triazol-2-yl)pyridin-3-yl)carbamoyl)-5-(trifluoromethyl)-1H-pyrazol-1-yl)quinoline-2-carboxamide] | 5.70 | 6.90 | 7.27 |  | 
3 | CS(=O)(=O)c1cc(NC(=O)c2cnn(-c3cccc4ncccc34)c2C(F)(F)F)ccc1-n1nccn1 [Cpd 215, N-(3-(methylsulfonyl)-4-(2H-1,2,3-triazol-2-yl)phenyl)-1-(quinolin-5-yl)-5-(trifluoromethyl)-1H-pyrazole-4-carboxamide] | 5.24 | 4.91 | 5.68 |  | 
4 | N#Cc1cnnn1-c1ncc(NC(=O)c2cnn(-c3cccc4ncccc34)c2C(F)(F)F)cc1Cl [Cpd 227, N-(5-chloro-6-(5-cyano-1H-1,2,3-triazol-1-yl)pyridin-3-yl)-1-(quinolin-5-yl)-5-(trifluoromethyl)-1H-pyrazole-4-carboxamide] | 5.94 | 5.19 | 6.26 |  | 
5 | N#Cc1cc(NC(=O)c2cnn(-c3ccnc4c(F)cccc34)c2C(F)(F)F)cnc1-n1nccn1 [Cpd 92, N-(5-cyano-6-(2H-1,2,3-triazol-2-yl)pyridin-3-yl)-1-(8-fluoroquinolin-4-yl)-5-(trifluoromethyl)-1H-pyrazole-4-carboxamide] | 7.72 | 6.99 | 6.88 |  | 
6 | O=C(Nc1cnc(-n2nccn2)c(Cl)c1)c1cnn(-c2cccc3ncccc23)c1Br [Cpd 188, 5-Bromo-N-(5-chloro-6-(2H-1,2,3-triazol-2-yl)pyridin-3-yl)-1-(quinolin-5-yl)-1H-pyrazole-4-carboxamide] | 6.94 | 7.34 | 7.30 |  | 
7 | O=C(Nc1cnc(-n2nccn2)c(Cl)c1)c1cnn(-c2cnc(C(F)F)c3sccc23)c1C(F)(F)F [Cpd 398, N-(5-chloro-6-(2H-1,2,3-triazol-2-yl)pyridin-3-yl)-1-(7-(difluoromethyl)thieno[2,3-c]pyridin-4-yl)-5-(trifluoromethyl)-1H-pyrazole-4-carboxamide] | 7.22 | 7.01 | 7.25 |  | 
8 | N-(5-chloro-6-(4-methyl-2H-1,2,3-triazol-2-yl)pyridin-3-yl)-1-(quinolin-5-yl)-5-(trifluoromethyl)-1H-pyrazole-4-carboxamide [Cpd 304] | 7.21 |  |  | 5.48 | 5.49
9 | Cc1cc(NC(=O)c2cnn(-c3cccc4ncccc34)c2C(F)(F)F)cnc1-c1nnnn1C [Cpd 240] | 6.20 | 6.40 | 6.87 |  | 
10 | O=C(Nc1cnc(-n2nccn2)c(Cl)c1)c1cnn(-c2cccc3nc(C4CCN4)ccc23)c1C(F)(F)F (stereo not drawn) [Cpd 381, 1-(2-(azetidin-2-yl)quinolin-5-yl)-N-(5-chloro-6-(2H-1,2,3-triazol-2-yl)pyridin-3-yl)-5-(trifluoromethyl)-1H-pyrazole-4-carboxamide] | 5.31 | 7.68 | 7.37 |  | 
11 | Cc1cc2nccc(-n3ncc(C(=O)Nc4cnc(-n5nccn5)c(C#N)c4)c3C(F)(F)F)c2o1 [Cpd 151, N-(5-cyano-6-(2H-1,2,3-triazol-2-yl)pyridin-3-yl)-1-(2-methylfuro[3,2-b]pyridin-7-yl)-5-(trifluoromethyl)-1H-pyrazole-4-carboxamide] | 6.67 | 6.65 | 6.70 |  | 
12 | O=C(Nc1cnc(-n2nccn2)c(Cl)c1)c1cnn(-c2ccc(C(F)F)c3ncccc23)c1C(F)(F)F [Cpd 397, N-(5-chloro-6-(2H-1,2,3-triazol-2-yl)pyridin-3-yl)-1-(8-(difluoromethyl)quinolin-5-yl)-5-(trifluoromethyl)-1H-pyrazole-4-carboxamide] | 6.67 | 6.97 | 7.77 |  | 
13 | O=C(Nc1cnc(-n2nccn2)c(Cl)c1)c1cnn(-c2ncnc3[nH]ncc23)c1C(F)(F)F [Cpd 222, N-(5-chloro-6-(2H-1,2,3-triazol-2-yl)pyridin-3-yl)-1-(1H-pyrazolo[3,4-d]pyrimidin-4-yl)-5-(trifluoromethyl)-1H-pyrazole-4-carboxamide] | 5.77 | 5.48 | 6.24 |  | 
14 | N#Cc1cc(NC(=O)c2cnn(-c3cccc4nc(N)nn34)c2C(F)(F)F)cnc1-n1nccn1 [Cpd 159, 1-(2-amino-[1,2,4]triazolo[1,5-a]pyridin-5-yl)-N-(5-cyano-6-(2H-1,2,3-triazol-2-yl)pyridin-3-yl)-5-(trifluoromethyl)-1H-pyrazole-4-carboxamide] | 6.98 | < 4.82 | 6.02 |  | 
15 | CC(=O)c1nccc2c(-n3ncc(C(=O)Nc4cnc(-n5nccn5)c(Cl)c4)c3C(F)(F)F)cccc12 [Cpd 378, 1-(1-acetylisoquinolin-5-yl)-N-(5-chloro-6-(2H-1,2,3-triazol-2-yl)pyridin-3-yl)-5-(trifluoromethyl)-1H-pyrazole-4-carboxamide] | 6.35 | 6.41 | 6.74 |  | 
16 | Cn1ccc2ccc(NC(=O)c3cnn(-c4cccc5ncccc45)c3C(F)(F)F)cc2c1=O [Cpd 216, N-(2-methyl-1-oxo-1,2-dihydroisoquinolin-7-yl)-1-(quinolin-5-yl)-5-(trifluoromethyl)-1H-pyrazole-4-carboxamide] | 5.27 | 6.04 | 6.47 |  | 
17 | N#Cc1cc(NC(=O)c2cnn(-c3cccc4ncccc34)c2C(F)(F)F)cnc1-n1cccc1 [Cpd 280, N-(5-cyano-6-(1H-pyrrol-1-yl)pyridin-3-yl)-1-(quinolin-5-yl)-5-(trifluoromethyl)-1H-pyrazole-4-carboxamide] | 6.90 | 5.26 | 5.62 |  | 
18 | CN1CCN(c2ncc(NC(=O)c3cnn(-c4cccc5ncccc45)c3C(F)(F)F)cc2C#N)CC1 [Cpd 224, N-(5-cyano-6-(4-methylpiperazin-1-yl)pyridin-3-yl)-1-(quinolin-5-yl)-5-(trifluoromethyl)-1H-pyrazole-4-carboxamide] | 5.78 | 6.24 | 6.08 |  | 
19 | O=C(Nc1cnc(N2CCCC2=O)c(Cl)c1)c1cnn(-c2cncc3ccccc23)c1C(F)(F)F [Cpd 107, N-(5-chloro-6-(2-oxopyrrolidin-1-yl)pyridin-3-yl)-1-(isoquinolin-4-yl)-5-(trifluoromethyl)-1H-pyrazole-4-carboxamide] | 5.89 | 5.46 | 5.93 |  | 
20 | Cc1cc(NC(=O)c2cnn(-c3cccc4ncccc34)c2C(F)(F)F)cnc1-n1ccn(C)c1=O [Cpd 218, N-(5-methyl-6-(3-methyl-2-oxo-2,3-dihydro-1H-imidazol-1-yl)pyridin-3-yl)-1-(quinolin-5-yl)-5-(trifluoromethyl)-1H-pyrazole-4-carboxamide] | 5.46 | 6.76 | 7.06 |  | 
21 | N#Cc1cc(NC(=O)c2cnn(-c3nncc4ccccc34)c2C(F)(F)F)cnc1-n1nccn1 [Cpd 102, N-(5-cyano-6-(2H-1,2,3-triazol-2-yl)pyridin-3-yl)-1-(phthalazin-1-yl)-5-(trifluoromethyl)-1H-pyrazole-4-carboxamide] | 7.38 | 6.96 | 6.73 |  | 
22 | O=C(Nc1ccnc(N2CCOCC2)c1)c1cnn(-c2cccc3c(=O)[nH]ccc23)c1C(F)(F)F [Cpd 361, N-(2-morpholinopyridin-4-yl)-1-(1-oxo-1,2-dihydroisoquinolin-5-yl)-5-(trifluoromethyl)-1H-pyrazole-4-carboxamide] | 4.91 | 5.90 | 6.21 |  | 
